Source: patent US20240360177A1, “PEPTIDES WITH ANTIMICROBIAL ACTIVITIES” (priority 2021, published 2024)
In brackets after ≈: the same amount, converted by molar mass. Starred links: 1 amine or outer side, 2 acyl side, 3 side chain; linkers in the order of their positions; H or OH if unused. Non-standard residues stand in square brackets, D forms with d. Residues, ends and D or L forms follow the SMILES beside them. *: point of attachment. Cyclohexanecarbonyl = O=C(C1CCCCC1)*; Morpholinoacetyl = O=C(CN1CCOCC1)*; NH(4-F-phenyl) = Fc1ccc(N*)cc1; CO = O=C([*:1])[*:2]; AEA = NCCOCC(=O)O; Ms = CS(=O)(=O)*

What was measured:
Conditions in all cases: 24 h
[1] = test system: C. albicans
[2] = test system: C. glabrata
[3] = test system: C. parapsilosis
[4] = test system: C. krusei
[5] = test system: C. auris
[6] = test system: C. tropicalis
[7] = test system: C. dubliniensis

| MIC C. albicans [1] | MIC C. glabrata [2] | MIC C. parapsilosis [3] | MIC C. krusei [4] | MIC C. auris [5] | MIC C. tropicalis [6] | MIC C. dubliniensis [7] | SMILES |
| --- | --- | --- | --- | --- | --- | --- | --- |
| 0.5 µg/mL (≈ 0.2 µM) | 1 µg/mL (≈ 0.399 µM) | 0.25 µg/mL (≈ 0.0998 µM) | 0.5 µg/mL (≈ 0.2 µM) | 8 µg/mL (≈ 3.19 µM) | 0.5 µg/mL (≈ 0.2 µM) | 0.5 µg/mL (≈ 0.2 µM) | N=C(N)NCCC[C@@H](N)C(=O)N[C@@H](CCCNC(=N)N)C(=O)N[C@H](CCCNC(=N)N)C(=O)NCCNCC(=O)N[C@H](CCCNC(=N)N)C(=O)N[C@@H](CCCNC(=N)N)C(=O)N[C@H](CCCNC(=N)N)C(=O)NCCNCC(=O)N[C@H](CCCNC(=N)N)C(=O)N[C@@H](CCCNC(=N)N)C(=O)N[C@H](CCCNC(=N)N)C(=O)N[C@@H](CCCNC(=N)N)C(=O)NCCNCC(=O)N[C@H](CCCNC(=N)N)C(=O)N[C@@H](CCCNC(=N)N)C(=O)N[C@H](CCCNC(=N)N)C(=O)N[C@@H](CCCNC(=N)N)C(N)=O [SEQ ID NO: 46, rRr-(Aeg)-rRr-(Aeg)-rRrR-(Aeg)-rRrR-NH2] |
| 0.5 µg/mL (≈ 0.199 µM) | 0.5 µg/mL (≈ 0.199 µM) | 0.25 µg/mL (≈ 0.0997 µM) | 0.5 µg/mL (≈ 0.199 µM) | 1 µg/mL (≈ 0.399 µM) | 0.5 µg/mL (≈ 0.199 µM) | 0.5 µg/mL (≈ 0.199 µM) | N=C(N)NCCC[C@@H](N)C(=O)N[C@@H](CCCNC(=N)N)C(=O)N[C@H](CCCNC(=N)N)C(=O)NCCOCC(=O)N[C@H](CCCNC(=N)N)C(=O)N[C@@H](CCCNC(=N)N)C(=O)N[C@H](CCCNC(=N)N)C(=O)NCCOCC(=O)N[C@H](CCCNC(=N)N)C(=O)N[C@@H](CCCNC(=N)N)C(=O)N[C@H](CCCNC(=N)N)C(=O)N[C@@H](CCCNC(=N)N)C(=O)NCCOCC(=O)N[C@H](CCCNC(=N)N)C(=O)N[C@@H](CCCNC(=N)N)C(=O)N[C@H](CCCNC(=N)N)C(=O)N[C@@H](CCCNC(=N)N)C(N)=O [SEQ ID NO: 52, rRr-(Aea)-rRr-(Aea)-rRrR-(Aea)-rRrR-NH2] (H-[dR]R[dR][AEA][dR]R[dR][AEA][dR]R[dR]R[AEA][dR]R[dR]R-NH2) |
| 0.25 µg/mL (≈ 0.1 µM) | 0.5 µg/mL (≈ 0.2 µM) | 0.25 µg/mL (≈ 0.1 µM) | 0.5 µg/mL (≈ 0.2 µM) | 2 µg/mL (≈ 0.801 µM) | 0.25 µg/mL (≈ 0.1 µM) | 0.5 µg/mL (≈ 0.2 µM) | N=C(N)NCCC[C@@H](N)C(=O)N[C@@H](CCCNC(=N)N)C(=O)N[C@H](CCCNC(=N)N)C(=O)N1CCC[C@H]1C(=O)N[C@H](CCCNC(=N)N)C(=O)N[C@@H](CCCNC(=N)N)C(=O)N[C@H](CCCNC(=N)N)C(=O)N1CCC[C@H]1C(=O)N[C@H](CCCNC(=N)N)C(=O)N[C@@H](CCCNC(=N)N)C(=O)N[C@H](CCCNC(=N)N)C(=O)N[C@@H](CCCNC(=N)N)C(=O)N1CCC[C@H]1C(=O)N[C@H](CCCNC(=N)N)C(=O)N[C@@H](CCCNC(=N)N)C(=O)N[C@H](CCCNC(=N)N)C(=O)N[C@@H](CCCNC(=N)N)C(=O)O [SEQ ID NO: 54, rRr-P-rRr-P-rRrR-P-rRrR] (H-[dR]R[dR]P[dR]R[dR]P[dR]R[dR]RP[dR]R[dR]R-OH) |
| 0.5 µg/mL (≈ 0.194 µM) | 0.5 µg/mL (≈ 0.194 µM) | 0.25 µg/mL (≈ 0.0972 µM) | 1 µg/mL (≈ 0.389 µM) | 0.5 µg/mL (≈ 0.194 µM) | 0.5 µg/mL (≈ 0.194 µM) | 0.5 µg/mL (≈ 0.194 µM) | CS(=O)(=O)N[C@H](CCCNC(=N)N)C(=O)N[C@@H](CCCNC(=N)N)C(=O)N[C@H](CCCNC(=N)N)C(=O)N1CCC[C@H]1C(=O)N[C@H](CCCNC(=N)N)C(=O)N[C@@H](CCCNC(=N)N)C(=O)N[C@H](CCCNC(=N)N)C(=O)N1CCC[C@H]1C(=O)N[C@H](CCCNC(=N)N)C(=O)N[C@@H](CCCNC(=N)N)C(=O)N[C@H](CCCNC(=N)N)C(=O)N[C@@H](CCCNC(=N)N)C(=O)N1CCC[C@H]1C(=O)N[C@H](CCCNC(=N)N)C(=O)N[C@@H](CCCNC(=N)N)C(=O)N[C@H](CCCNC(=N)N)C(=O)N[C@@H](CCCNC(=N)N)C(N)=O [SEQ ID NO: 56, CH3SO2NH-rRr-P-rRr-P-rRrR-P-rRrR-NH2] (Ms-[dR]R[dR]P[dR]R[dR]P[dR]R[dR]RP[dR]R[dR]R-NH2) |
| 0.5 µg/mL (≈ 0.19 µM) | 0.5 µg/mL (≈ 0.19 µM) | 0.5 µg/mL (≈ 0.19 µM) | 1 µg/mL (≈ 0.38 µM) | 0.5 µg/mL (≈ 0.19 µM) | 0.5 µg/mL (≈ 0.19 µM) | 0.5 µg/mL (≈ 0.19 µM) | N=C(N)NCCC[C@H](NC(=O)[C@@H](CCCNC(=N)N)NC(=O)[C@H](CCCNC(=N)N)NC(=O)[C@@H](CCCNC(=N)N)NC(=O)[C@@H]1CCCN1C(=O)[C@H](CCCNC(=N)N)NC(=O)[C@@H](CCCNC(=N)N)NC(=O)[C@H](CCCNC(=N)N)NC(=O)[C@@H](CCCNC(=N)N)NC(=O)[C@@H]1CCCN1C(=O)[C@@H](CCCNC(=N)N)NC(=O)[C@H](CCCNC(=N)N)NC(=O)[C@@H](CCCNC(=N)N)NC(=O)[C@@H]1CCCN1C(=O)[C@@H](CCCNC(=N)N)NC(=O)[C@H](CCCNC(=N)N)NC(=O)[C@@H](CCCNC(=N)N)NC(=O)Nc1ccc(F)cc1)C(N)=O [SEQ ID NO: 57, 4-FPhNHC(O)NH-rRr-P-rRr-P-rRrR-P-rRrR-NH2] ({NH(4-F-phenyl)-CO}-[dR]R[dR]P[dR]R[dR]P[dR]R[dR]RP[dR]R[dR]R-NH2) |
| 1 µg/mL (≈ 0.384 µM) | 1 µg/mL (≈ 0.384 µM) | 0.5 µg/mL (≈ 0.192 µM) | 2 µg/mL (≈ 0.768 µM) | 1 µg/mL (≈ 0.384 µM) | 1 µg/mL (≈ 0.384 µM) | 0.5 µg/mL (≈ 0.192 µM) | N=C(N)NCCC[C@H](NC(=O)[C@@H](CCCNC(=N)N)NC(=O)[C@H](CCCNC(=N)N)NC(=O)[C@@H](CCCNC(=N)N)NC(=O)[C@@H]1CCCN1C(=O)[C@H](CCCNC(=N)N)NC(=O)[C@@H](CCCNC(=N)N)NC(=O)[C@H](CCCNC(=N)N)NC(=O)[C@@H](CCCNC(=N)N)NC(=O)[C@@H]1CCCN1C(=O)[C@@H](CCCNC(=N)N)NC(=O)[C@H](CCCNC(=N)N)NC(=O)[C@@H](CCCNC(=N)N)NC(=O)[C@@H]1CCCN1C(=O)[C@@H](CCCNC(=N)N)NC(=O)[C@H](CCCNC(=N)N)NC(=O)[C@@H](CCCNC(=N)N)NC(=O)C1CCCCC1)C(N)=O [SEQ ID NO: 58, cHexC(O)NH-rRr-P-rRr-P-rRrR-P-rRrR-NH2] (Cyclohexanecarbonyl-[dR]R[dR]P[dR]R[dR]P[dR]R[dR]RP[dR]R[dR]R-NH2; N-terminus and C-terminus assumed) |
| 0.5 µg/mL (≈ 0.191 µM) | 0.5 µg/mL (≈ 0.191 µM) | 0.5 µg/mL (≈ 0.191 µM) | 2 µg/mL (≈ 0.763 µM) | 4 µg/mL (≈ 1.53 µM) | 0.5 µg/mL (≈ 0.191 µM) | 0.5 µg/mL (≈ 0.191 µM) | N=C(N)NCCC[C@H](NC(=O)[C@@H](CCCNC(=N)N)NC(=O)[C@H](CCCNC(=N)N)NC(=O)[C@@H](CCCNC(=N)N)NC(=O)[C@@H]1CCCN1C(=O)[C@H](CCCNC(=N)N)NC(=O)[C@@H](CCCNC(=N)N)NC(=O)[C@H](CCCNC(=N)N)NC(=O)[C@@H](CCCNC(=N)N)NC(=O)[C@@H]1CCCN1C(=O)[C@@H](CCCNC(=N)N)NC(=O)[C@H](CCCNC(=N)N)NC(=O)[C@@H](CCCNC(=N)N)NC(=O)[C@@H]1CCCN1C(=O)[C@@H](CCCNC(=N)N)NC(=O)[C@H](CCCNC(=N)N)NC(=O)[C@@H](CCCNC(=N)N)NC(=O)CN1CCOCC1)C(N)=O [SEQ ID NO: 59, MorpholineCH2C(O)NH-rRr-P-rRr-P-rRrR-P-rRrR-NH2] (Morpholinoacetyl-[dR]R[dR]P[dR]R[dR]P[dR]R[dR]RP[dR]R[dR]R-NH2) |
